Columns and labels:
[1] = molecular target: PARP1 (Homo sapiens (Human), UniProt P09874); test: PARP1 FP Assay; format: binding; conditions: PARP1 fluorescence polarization probe assay, 4 hours at room temperature
Method: Compounds were dissolved and 4-fold serially diluted in DMSO. Compounds were transferred by an Echo to the assay plate to reach final concentrations ranging from 10 μM to 0.01 nM.
Assay buffer was composed of 50 mM Tris pH 8.0, 10 mM MgCl2, 150 mM NaCl and 0.001% Triton X100.

[2] = molecular target: PARP2 (Homo sapiens (Human), UniProt Q9UGN5); test: PARP2 FP Assay; format: binding; conditions: PARP2 fluorescence polarization probe assay, 4 hours at room temperature
Sequence of PARP2 (Q9UGN5 whole entry): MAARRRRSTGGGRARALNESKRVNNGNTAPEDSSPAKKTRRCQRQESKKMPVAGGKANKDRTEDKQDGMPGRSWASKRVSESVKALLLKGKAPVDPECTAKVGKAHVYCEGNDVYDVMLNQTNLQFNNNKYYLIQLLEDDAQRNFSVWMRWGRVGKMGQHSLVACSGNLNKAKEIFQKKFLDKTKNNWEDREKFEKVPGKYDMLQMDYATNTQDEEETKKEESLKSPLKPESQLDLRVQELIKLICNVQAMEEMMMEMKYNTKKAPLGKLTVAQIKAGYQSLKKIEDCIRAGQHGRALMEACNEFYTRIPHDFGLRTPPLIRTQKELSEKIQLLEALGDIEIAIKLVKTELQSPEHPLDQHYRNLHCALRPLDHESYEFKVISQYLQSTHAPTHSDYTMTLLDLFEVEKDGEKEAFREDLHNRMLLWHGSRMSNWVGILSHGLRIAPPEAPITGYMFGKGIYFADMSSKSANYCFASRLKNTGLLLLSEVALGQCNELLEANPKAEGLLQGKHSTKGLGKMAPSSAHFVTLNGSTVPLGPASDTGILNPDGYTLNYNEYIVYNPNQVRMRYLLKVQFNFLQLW

[3] = system: PARylation level in MDA-MB-436; test: PARPylation MSD Assay on MDA-MB-436; format: cell-based; conditions: Homo sapiens; MDA-MB-436 cells, 4 hours incubation with compound, electrochemiluminescent (MSD) detection of PARylation
Method: Compounds were dissolved and 4-fold serially diluted in DMSO.
Plates were incubated for 1 hour at room temperature, with shaking. […] Plates were incubated for 1 hour at room temperature, with shaking.

Sequence of PARP1 (P09874 whole entry): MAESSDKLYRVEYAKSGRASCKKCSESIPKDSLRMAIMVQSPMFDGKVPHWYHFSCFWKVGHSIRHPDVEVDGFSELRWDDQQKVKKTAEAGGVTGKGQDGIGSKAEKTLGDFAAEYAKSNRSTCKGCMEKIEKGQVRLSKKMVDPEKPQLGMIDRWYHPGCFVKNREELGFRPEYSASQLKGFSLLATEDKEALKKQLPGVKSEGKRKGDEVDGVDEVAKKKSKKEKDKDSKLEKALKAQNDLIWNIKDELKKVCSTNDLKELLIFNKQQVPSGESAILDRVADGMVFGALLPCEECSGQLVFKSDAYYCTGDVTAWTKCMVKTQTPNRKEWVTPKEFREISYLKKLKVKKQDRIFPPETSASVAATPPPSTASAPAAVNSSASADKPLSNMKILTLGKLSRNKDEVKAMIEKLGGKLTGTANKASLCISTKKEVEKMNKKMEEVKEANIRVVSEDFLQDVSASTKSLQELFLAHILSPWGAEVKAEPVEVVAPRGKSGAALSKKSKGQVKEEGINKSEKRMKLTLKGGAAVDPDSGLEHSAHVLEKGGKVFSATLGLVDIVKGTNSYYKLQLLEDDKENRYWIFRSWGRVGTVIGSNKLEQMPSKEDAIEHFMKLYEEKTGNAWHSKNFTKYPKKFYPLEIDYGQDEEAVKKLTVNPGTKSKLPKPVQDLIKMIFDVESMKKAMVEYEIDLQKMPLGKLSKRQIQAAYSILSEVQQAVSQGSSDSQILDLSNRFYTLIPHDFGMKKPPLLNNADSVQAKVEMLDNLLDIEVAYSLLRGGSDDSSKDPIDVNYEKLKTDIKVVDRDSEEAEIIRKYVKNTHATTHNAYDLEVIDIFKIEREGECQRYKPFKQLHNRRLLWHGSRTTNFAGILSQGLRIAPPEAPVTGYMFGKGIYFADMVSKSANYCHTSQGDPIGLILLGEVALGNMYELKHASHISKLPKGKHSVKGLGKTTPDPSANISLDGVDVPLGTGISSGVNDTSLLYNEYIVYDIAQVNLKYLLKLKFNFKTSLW

Row | SMILES | IC50 [1] [nM] | IC50 [2] [µM] | IC50 [3] [nM]
1 | CCc1cc2ncc([S@](=N)(=O)C3CCN(c4ccc(C(=O)NC)nc4)CC3)cc2[nH]c1=O (single isomer, unassigned) [Compound 2.7] | 6.89 | > 10 | 10.8
2 | CCc1cc2ncc([S@@](=N)(=O)C3CCN(c4ccc(C(=O)NC)nc4)CC3)cc2[nH]c1=O (single isomer, unassigned) [Compound 2.8] | 8.66 | > 10 | 0.515
3 | CCc1cc2ncc(S(=O)(=O)N3CCN(c4ccc(F)cc4F)CC3)cc2[nH]c1=O [Compound 2.6, 7-((4-(2,4-difluorophenyl)piperazin-1-yl)sulfonyl)-3-ethyl-1,5-naphthyridin-2(1H)-one] | > 10000 | > 10 | > 1000

— US20240228486A1, “SULFONE- AND SULFOXIMINE-BASED SELECTIVE PARP1 INHIBITORS” (Enliven Inc., priority 2022, published 2024)
